Test results reported in PMC9353555, “Hemoclot Thrombin Inhibitor Assay and Expected Peak-Trough Levels of Dabigatran: A Multicenter Study” (Frontiers in Cardiovascular Medicine, 2022).
Like-named read-outs stand apart in the source and are kept apart here.

Tests used:
[1] = Plasma dabigatran concentration and pharmacokinetics by HPLC-MS/MS; type: in vivo, human; conditions: healthy subjects, single dose 150 mg; for AUC(0-t): 150 mg
Protocol: The venous blood samples were collected 0 h and post-dose at 16–19 time points in 3.0 ml EDTA-K2 tubes and centrifuged at 4°C for 10 min at 3,000 g. The plasma samples were stored at –80°C until analysis.
The total anti-thrombin effect from dabigatran etexilate is a result of dabigatran (alone) and dabigatran acylglucuronides. An assay for total dabigatran (the sum of free dabigatran and the contribution from dabigatran acylglucuronides) in plasma is developed, validated and applied ([21], [22]). Thus, dabigatran concentrations were determined by validated HPLC-MS/MS assays at Shimadzu 30 series, API 6500 (Applied Biosystems, Inc., American). The standard calibration curves with good linearity were built for dabigatran within the concentration range of 1.0–300.0 ng/mL, and the lower limit of quantitation (LOQ) was 1.0 ng/mL. The precision (% CV), intra-batch accuracy and inter-batch accuracy were within 6.2–9.2, 90.3–104.3, and 94.6–103.8%, respectively. PK parameters were analyzed by non-compartmental methods using Phoenix Win-Non-lin 7.0 (A Certara™ Company, Princeton, NJ, United States). Cmax (Maximum concentration) and Tmax (the time to Cmax) were obtained from the observed data, while terminal half-life (t1/2), plasma concentration vs. time from 0 to the last measurable time point (AUC0–t) were calculated.
(§1) For detecting pharmacodynamics (PD) parameters, the sampling times were 0, 2, 8, 12 h after dabigatran administration respectively. In patients’ population, plasma sample obtained longer than 10 h after the previous dose was considered for trough concentration; average 2.0 h (range: 1.0–3.0 h) post dose was considered for peak concentration. The reference detection range refers to plasma dabigatran concentrations between the 2.5th and 97.5th percentiles of all values determined by HPLC-MS/MS.

[2] = test system: PT; assay: Prothrombin time (PT) coagulation assay after dabigatran; type: in vivo, human; conditions: for PT-peak / PT-0 h / PT-trough: NVAF patients, 110 mg bid, target range 10.1–12.6 s; for PT-peak: peak (1.0–3.0 h post dose); for PT-0 h: pre-dose; for PT-trough: trough (>10 h after previous dose)
Protocol: as §1
(§2) Blood samples were collected via 2.7 ml sodium citrate tubes, then centrifuged for 15 min at 2,500 g at room-temperature. The plasma samples were stored at –70°C within 6 months until analysis.
(§3) Pharmacodynamic assessment was performed at a centralized facility in Peking University First Hospital. The HTI, PT, and APTT were measured on Sysmex CS-2100i (Sysmex, Kobe, Japan). PT and APTT were tested using Coagulation Method Assay Kits (Thromborel-S® and Actin®, Marburg, Germany). The normal reference range for the PT and APTT assays used in this study are 10.1–12.6 s for PT and 26.9–37.6 s for APTT. Concentration detection is divided into two standard curves, one is suitable for normal and slightly high concentration range, another one is suitable for low concentration range. When the concentration is below 120 ng/ml, the low concentration standard curve is switched to obtain a more accurate concentration value. […] PD assessment was all performed in our hospital.

[3] = Hemoclot thrombin inhibitor (HTI) assay of plasma dabigatran concentration; type: in vivo, human; conditions: for HTI-peak: peak (1.0–3.0 h post dose); for HTI-trough: trough (>10 h after previous dose)
Protocol: as §1, §2, §3

[4] = test system: APTT; assay: Activated partial thromboplastin (APTT) coagulation assay after dabigatran; type: in vivo, human; conditions: for APTT-peak / APTT-0 h / APTT-trough: NVAF patients, 110 mg bid, target range 26.9–37.6 s; for APTT-peak: peak (1.0–3.0 h post dose); for APTT-0 h: pre-dose; for APTT-trough: trough (>10 h after previous dose)
Protocol: as §1, §2, §3

[5] = set-up: method as in PMID 23718677; conditions: dabigatran 150 mg, American population; cited from earlier work
[6] = 183 patients, 110 mg bid, HTI assay, about 500 blood samples
[7] = NVAF patients, 110 mg bid, HTI-derived concentration
[8] = NVAF patients, 110 mg bid, HTI-derived concentration, listed as dabigatran

SMILES: [H]/N=C(/N)c1ccc(NCc2nc3cc(C(=O)N(CCC(=O)O)c4ccccn4)ccc3n2C)cc1 [Dabigatran]
- C–2 h ([1]; 2 h, HPLC-MS/MS, mean ± SD): 85.51 ± 73.77 ng/mL
- C–8 h ([1]; 8 h, HPLC-MS/MS, mean ± SD): 57.60 ± 23.46 ng/mL
- C–12 h ([1]; 12 h, HPLC-MS/MS, mean ± SD): 36.40 ± 3.15 ng/mL
- Cmax ([1]; mean ± SD): 139.99 ± 55.61 ng/mL
- reference detection range ([1]; 2.5th to 97.5th percentiles of plasma concentrations by HPLC-MS/MS): 33 to 159 ng/mL
- AUC(0-t) ([1]; human, plasma, oral, mean ± SD, read-out: AUC0–12): 1290 ± 442 ng·h/mL
- AUC(0-t) ([1]; human, plasma, oral, mean ± SD, read-out: AUC0–t): 1250 ± 442 ng·h/mL
- concentration at 0 h ([1]; human, plasma, oral, 0 h (pre-dose), HPLC-MS/MS, mean ± SD, read-out: C–0 h): 0 ng/mL
- concentration at 2 h ([1]; human, plasma, oral, 2 h, HPLC-MS/MS, mean ± SD, read-out: C–2 h): 85.5 ng/mL
- concentration at 8 h ([1]; human, plasma, oral, 8 h, HPLC-MS/MS, mean ± SD, read-out: C–8 h): 57.6 ng/mL
- concentration at 12 h ([1]; human, plasma, oral, 12 h, HPLC-MS/MS, mean ± SD, read-out: C–12 h): 36.4 ng/mL
- Tmax ([1]; human, plasma, oral, mean ± SD): 3.61 ± 2.09 h
- half-life ([1]; human, plasma, oral, mean ± SD): 8.78 ± 1.33 h
- PT-peak [2]: 14.04 ± 3.50 s
- PT-peak ([2]; listed as dabigatran): 14.04 s
- PT-0 h [2]: 15.58 ± 5.90 s
- PT-0 h ([2]; listed as dabigatran): 15.58 s
- PT-trough [2]: 13.79 ± 6.15 s
- PT-trough ([2]; listed as dabigatran): 13.79 s
- PT–0 h ([2]; healthy subjects, single dose 150 mg, 0 h (pre-dose), reference range 10.1–12.6 s): 11.74 ± 1.88 s
- PT–2 h ([2]; healthy subjects, single dose 150 mg, 2 h, reference range 10.1–12.6 s): 12.83 ± 1.58 s
- PT–8 h ([2]; healthy subjects, single dose 150 mg, 8 h, reference range 10.1–12.6 s): 12.44 ± 1.31 s
- PT–12 h ([2]; healthy subjects, single dose 150 mg, 12 h, reference range 10.1–12.6 s): 11.97 ± 0.92 s
- expected peak levels range [3, 6]: 95 to 196 ng/mL
- expected trough levels range [3, 6]: 36 to 92 ng/mL
- HTI-peak [3, 7]: 145.57 ± 50.16 ng/mL
- HTI-peak [3, 8]: 145.57 ng/mL
- HTI-0 h ([3]; NVAF patients, 110 mg bid, pre-dose, HTI-derived concentration): 4.06 ± 2.92 ng/mL
- HTI-trough [3, 7]: 63.74 ± 27.95 ng/mL
- HTI-trough [3, 8]: 63.74 ng/mL
- HTI–2 h ([3]; healthy subjects, single dose 150 mg, 2 h, HTI-derived concentration): 88.89 ± 79.08 ng/mL
- HTI–8 h ([3]; healthy subjects, single dose 150 mg, 8 h, HTI-derived concentration): 61.91 ± 27.46 ng/mL
- HTI–12 h ([3]; healthy subjects, single dose 150 mg, 12 h, HTI-derived concentration): 40.00 ± 16.63 ng/mL
- concentration at 0 h ([3]; human, plasma, oral, NVAF patients, 110 mg bid, pre-dose, HTI-derived concentration): 4.06 ng/mL
- concentration at 0 h ([3]; human, plasma, oral, healthy subjects, single dose 150 mg, 0 h (pre-dose), HTI-derived concentration): 2.99 ± 2.37 ng/mL
- concentration at 2 h ([3]; human, plasma, oral, healthy subjects, single dose 150 mg, 2 h, HTI-derived concentration): 88.9 ng/mL
- concentration at 8 h ([3]; human, plasma, oral, healthy subjects, single dose 150 mg, 8 h, HTI-derived concentration): 61.9 ng/mL
- concentration at 12 h ([3]; human, plasma, oral, healthy subjects, single dose 150 mg, 12 h, HTI-derived concentration): 40 ng/mL
- APTT-peak [4]: 47.89 ± 4.43 s
- APTT-peak ([4]; listed as dabigatran): 47.89 s
- APTT-0 h [4]: 36.47 ± 8.40 s
- APTT-0 h ([4]; listed as dabigatran): 36.47 s
- APTT-trough [4]: 39.08 ± 9.74 s
- APTT-trough ([4]; listed as dabigatran): 39.08 s
- APTT–0 h ([4]; healthy subjects, single dose 150 mg, 0 h (pre-dose), reference range 26.9–37.6 s): 27.78 ± 3.50 s
- APTT–2 h ([4]; healthy subjects, single dose 150 mg, 2 h, reference range 26.9–37.6 s): 39.69 ± 10.69 s
- APTT–8 h ([4]; healthy subjects, single dose 150 mg, 8 h, reference range 26.9–37.6 s): 38.52 ± 6.00 s
- APTT–12 h ([4]; healthy subjects, single dose 150 mg, 12 h, reference range 26.9–37.6 s): 35.22 ± 5.37 s
- reference detection range [5]: 27 to 411 ng/mL
